{"source": "patent US20080292619A1", "about": "“Pharmaceutical Composition Containing Meltrin Antagonist” (MOCHIDA PHARMACEUTICAL CO., LTD., priority 2004, published 2008)", "test_system": "human meltrin α RNA", "assay": "Suppression of human meltrin α expression by antisense compound in RD cell (real time PCR)", "assay_type": "cell-based", "details": "50 nM; RD cell", "how_it_was_run": "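RD cells transfected with heat-denatured antisense oligodeoxynucleotide plus Lipofectin in Opti-MEM for 4 h at 37° C, then cultured 18 h. Meltrin α RNA quantified by TaqMan RT-PCR against plasmid standard curve, GAPDH-corrected; suppression vs untreated cells, rated +/++/+++ for ≥30/50/70%.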", "note": "In the oligonucleotide strings, read from the 5' end, every base follows the letter of its sugar. An asterisk marks phosphorothioate; unmarked linkages are phosphodiester. Other units and linkages are bracketed, terminal groups are in braces. A string of capitals states the bases alone. d = 2'-deoxy (DNA)"}
{"substance": "2 (dC*dT*dG*dG*dT*dT*dA*dA*dT*dG*dG*dT*dT*dC*dA*dC*dA*dT*dC*dT) [compound 2]", "values": [{"measurement": "Supression of expression, 50 nM", "result": "++ (“++” when the suppression rate was at least 50%)"}]}
